Data taken from ChEMBL document CHEMBL1156457, “Mechanisms for picrotoxinin and picrotin blocks of alpha2 homomeric glycine receptors” (J Biol Chem, 2007).
Active and inactive are the calls of the source. The calls are words filed in the database; no cut-off is given here.

Experiments:
[1] = target: T1, Glycine receptor subunit alpha-2 (Rattus norvegicus) (UniProt P22771); test: Inhibition of rat alpha2 homomeric glycine receptor expressed in CHO cells assessed as inhibition of 300 uM glycine-elicited current at 300 uM by outside patch clamp technique
T1 sequence (whole entry): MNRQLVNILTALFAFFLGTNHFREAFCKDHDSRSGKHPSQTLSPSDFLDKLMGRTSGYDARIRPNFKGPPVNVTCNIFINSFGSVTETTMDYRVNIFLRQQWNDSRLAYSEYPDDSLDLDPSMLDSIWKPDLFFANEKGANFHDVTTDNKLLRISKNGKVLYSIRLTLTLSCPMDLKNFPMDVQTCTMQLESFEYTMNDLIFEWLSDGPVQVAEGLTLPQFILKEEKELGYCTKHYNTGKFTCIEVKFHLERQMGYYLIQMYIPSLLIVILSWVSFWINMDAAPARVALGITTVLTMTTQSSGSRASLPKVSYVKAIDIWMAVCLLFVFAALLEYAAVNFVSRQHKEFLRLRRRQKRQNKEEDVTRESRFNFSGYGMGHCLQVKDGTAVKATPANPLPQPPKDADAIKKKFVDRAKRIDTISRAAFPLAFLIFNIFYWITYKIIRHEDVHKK

[2] = target: T1, Glycine receptor subunit alpha-2 (Rattus norvegicus); test: Effect on rat alpha2 homomeric glycine receptor expressed in CHO cells assessed as decrease in activation phase of glycine response at 30 uM by outside patch clamp technique; assay type: cell-based
[3] = target: T1, Glycine receptor subunit alpha-2 (Rattus norvegicus); test: Inhibition of rat alpha2 homomeric glycine receptor expressed in CHO cells assessed as inhibition of 300 uM glycine-elicited current at 100 uM at +50 mV voltage by outside patch clamp technique; assay type: cell-based
[4] = target: T1, Glycine receptor subunit alpha-2 (Rattus norvegicus); test: Effect on rat alpha2 homomeric glycine receptor expressed in CHO cells assessed as change in rising time constant of glycine response at 300 uM by outside patch clamp technique; assay type: cell-based
[5] = target: T1, Glycine receptor subunit alpha-2 (Rattus norvegicus); test: Effect on rat alpha2 homomeric glycine receptor expressed in CHO cells assessed as shortened deactivation phase of glycine-evoked response at 100 uM administered before glycine challenge by outside patch clamp technique; assay type: cell-based
[6] = target: T1, Glycine receptor subunit alpha-2 (Rattus norvegicus); test: Effect on rat alpha2 homomeric glycine receptor expressed in CHO cells assessed as decrease in channel mean open time by outside patch clamp technique relative to control; assay type: cell-based
[7] = target: T1, Glycine receptor subunit alpha-2 (Rattus norvegicus); test: Inhibition of rat alpha2 homomeric glycine receptor expressed in CHO cells assessed as inhibition of 300 uM glycine-elicited current at 100 uM at -50 mV voltage by outside patch clamp technique; assay type: cell-based
[8] = target: T1, Glycine receptor subunit alpha-2 (Rattus norvegicus); test: Effect on rat alpha2 homomeric glycine receptor expressed in CHO cells assessed as flickering of channel in response to glycine-pulse at 30 uM by outside patch clamp technique; assay type: cell-based
[9] = target: T1, Glycine receptor subunit alpha-2 (Rattus norvegicus); test: Effect on rat alpha2 homomeric glycine receptor expressed in CHO cells assessed as glycine-evoked response at 100 uM administered before glycine challenge by outside patch clamp technique; assay type: cell-based
[10] = target: T1, Glycine receptor subunit alpha-2 (Rattus norvegicus); test: Inhibition of rat alpha2 homomeric glycine receptor expressed in CHO cells assessed as inhibition of 300 uM glycine-elicited current at 3 uM by outside patch clamp technique; assay type: cell-based
[11] = target: T1, Glycine receptor subunit alpha-2 (Rattus norvegicus); test: Effect on rat alpha2 homomeric glycine receptor expressed in CHO cells assessed as decrease in channel mean open time at 30 uM by outside patch clamp technique relative to control; assay type: cell-based
[12] = target: T2, Glycine receptor subunit alpha-2 (Rattus norvegicus, UniProt P22771); test: Inhibition of rat alpha2 homomeric glycine receptor expressed in CHO cells assessed as inhibition of 300 uM glycine-elicited current by outside patch clamp technique; assay type: cell-based
T2 sequence (P22771 whole entry): T1 sequence (whole entry)

[13] = target: T1, Glycine receptor subunit alpha-2 (Rattus norvegicus); test: Effect on rat alpha2 homomeric glycine receptor expressed in CHO cells assessed as change in relative area of rising time constant of glycine response at 300 uM by outside patch clamp technique; assay type: cell-based
[14] = target: T1, Glycine receptor subunit alpha-2 (Rattus norvegicus); test: Inhibition of rat alpha2 homomeric glycine receptor expressed in CHO cells assessed as inhibition of 30 mM glycine-elicited current at 300 uM by outside patch clamp technique
[15] = target: T1, Glycine receptor subunit alpha-2 (Rattus norvegicus); test: Inhibition of rat alpha2 homomeric glycine receptor expressed in CHO cells assessed as inhibition of deactivation time constant by outside patch clamp technique; assay type: cell-based
[16] = target: T1, Glycine receptor subunit alpha-2 (Rattus norvegicus); test: Effect on rat alpha2 homomeric glycine receptor expressed in CHO cells assessed as shortened single receptor burst opening in response to glycine-pulse at 30 uM by outside patch clamp technique; assay type: cell-based
[17] = target: T1, Glycine receptor subunit alpha-2 (Rattus norvegicus); test: Effect on rat alpha2 homomeric glycine receptor expressed in CHO cells assessed as decrease in channel mean open time at 10 uM by outside patch clamp technique relative to control; assay type: cell-based
[18] = target: T1, Glycine receptor subunit alpha-2 (Rattus norvegicus); test: Inhibition of rat alpha2 homomeric glycine receptor expressed in CHO cells assessed as inhibition of 30 mM glycine-elicited current at 10 uM by outside patch clamp technique
[19] = target: T1, Glycine receptor subunit alpha-2 (Rattus norvegicus); test: (§1) Inhibition of rat alpha2 homomeric glycine receptor expressed in CHO cells assessed as inhibition of 300 uM glycine-elicited current at 3 uM at +50 mV voltage by outside patch clamp technique; assay type: cell-based
[20] = target: T1, Glycine receptor subunit alpha-2 (Rattus norvegicus); test: Effect on rat alpha2 homomeric glycine receptor expressed in CHO cells assessed as change in rising time constant of glycine response at 10 uM by outside patch clamp technique; assay type: cell-based
[21] = target: T1, Glycine receptor subunit alpha-2 (Rattus norvegicus); test: Effect on rat alpha2 homomeric glycine receptor expressed in CHO cells assessed as decrease in activation phase of glycine response at 10 uM by outside patch clamp technique; assay type: cell-based
[22] = target: T1, Glycine receptor subunit alpha-2 (Rattus norvegicus); test: as §1; assay type: cell-based; remark: listed apart in the source
[23] = target: T1, Glycine receptor subunit alpha-2 (Rattus norvegicus); test: Effect on rat alpha2 homomeric glycine receptor expressed in CHO cells assessed as shortened deactivation phase of glycine-evoked response at 10 uM administered before glycine challenge by outside patch clamp technique; assay type: cell-based
[24] = target: T1, Glycine receptor subunit alpha-2 (Rattus norvegicus); test: Effect on rat alpha2 homomeric glycine receptor expressed in CHO cells assessed as glycine-evoked response at 10 uM administered before glycine challenge by outside patch clamp technique; assay type: cell-based
[25] = target: T1, Glycine receptor subunit alpha-2 (Rattus norvegicus); test: Effect on rat alpha2 homomeric glycine receptor expressed in CHO cells assessed as decrease in glycine-evoked recovery time constant at 10 uM by outside patch clamp technique; assay type: cell-based
[26] = target: T1, Glycine receptor subunit alpha-2 (Rattus norvegicus); test: Inhibition of rat alpha2 homomeric glycine receptor expressed in CHO cells assessed as inhibition of 300 uM glycine-elicited current at 10 uM by outside patch clamp technique; assay type: cell-based
[27] = target: T1, Glycine receptor subunit alpha-2 (Rattus norvegicus); test: Effect on rat alpha2 homomeric glycine receptor expressed in CHO cells assessed as change in relative area of rising time constant of glycine response at 10 uM by outside patch clamp technique; assay type: cell-based
[28] = target: T1, Glycine receptor subunit alpha-2 (Rattus norvegicus); test: Effect on rat alpha2 homomeric glycine receptor expressed in CHO cells assessed as shortened single receptor burst opening in response to glycine-pulse at 10 uM by outside patch clamp technique; assay type: cell-based

CC(C)(O)[C@@H]1[C@H]2OC(=O)[C@@H]1[C@]1(O)C[C@H]3O[C@]34C(=O)O[C@H]2[C@]14C [PICROTIN]
inhibition [1]: 63.7%
Activity [2]: Active
Activity [3]: Active
Activity [4]: 91.1%
Activity [5]: Active
Activity [6]: Dose-dependent effect
Activity [7]: Active
Activity [8]: Active
Activity [9]: Active
inhibition [10]: 3.4%
Activity [11]: 2.9 ms
IC50 [12]: 117 µM
Activity [13]: 8.9%
inhibition [14]: 36.3%
Activity [15]: Dose-dependent effect
Activity [16]: Active

C=C(C)[C@@H]1[C@H]2OC(=O)[C@@H]1[C@]1(O)C[C@H]3O[C@]34C(=O)O[C@H]2[C@]14C [PICROTOXININ]
Activity [17]: 9.3 ms
inhibition [18]: 47.4%
Activity [6]: Dose-dependent effect
Activity [19]: Active
Activity [20]: 81%
Activity [21]: Active
Activity [22]: Active
Activity [23]: Active
inhibition [10]: 50%
IC50 [12]: 2.4 µM
Activity [24]: Active
Activity [25]: 17.6 ms
inhibition [26]: 78.9%
Activity [27]: 19%
Activity [28]: Active
Activity [15]: Dose-dependent effect
